One block for each molecule: values may come before it.
How the values were obtained:
Assay type in all cases: functional, cell-based
Conditions in all cases: pig, llc-pk1, 50 µM
[1] = target: T1, ATP-dependent translocase ABCB1 (Homo sapiens, UniProt P08183); assay: TP_TRANSPORTER: inhibition of Digoxin transepithelial transport (basal to apical)(Digoxin: 0.1 uM, Atenolol: 50 uM) in MDR1-expressing LLC-PK1 cells
[2] = target: T1, ATP-dependent translocase ABCB1; assay: TP_TRANSPORTER: inhibition of Digoxin transepithelial transport (basal to apical)(Digoxin: 0.1 uM, Candesartan cilexetil: 50 uM) in MDR1-expressing LLC-PK1 cells
[3] = target: T1, ATP-dependent translocase ABCB1; assay: TP_TRANSPORTER: inhibition of Digoxin transepithelial transport (basal to apical)(Digoxin: 0.1 uM, Candesartan: 50 uM) in MDR1-expressing LLC-PK1 cells
[4] = target: T1, ATP-dependent translocase ABCB1; assay: TP_TRANSPORTER: inhibition of Digoxin transepithelial transport (basal to apical)(Digoxin: 0.1 uM, Captopril: 50 uM) in MDR1-expressing LLC-PK1 cells
[5] = target: T1, ATP-dependent translocase ABCB1; assay: TP_TRANSPORTER: inhibition of Digoxin transepithelial transport (basal to apical)(Digoxin: 0.1 uM, Carvedilol: 50 uM) in MDR1-expressing LLC-PK1 cells
[6] = target: T1, ATP-dependent translocase ABCB1; assay: TP_TRANSPORTER: inhibition of Digoxin transepithelial transport (basal to apical)(Digoxin: 0.1 uM, Cilazaprilat: 50 uM) in MDR1-expressing LLC-PK1 cells
[7] = target: T1, ATP-dependent translocase ABCB1; assay: TP_TRANSPORTER: inhibition of Digoxin transepithelial transport (basal to apical)(Digoxin: 0.1 uM, Cilazapril: 50 uM) in MDR1-expressing LLC-PK1 cells
[8] = target: T1, ATP-dependent translocase ABCB1; assay: TP_TRANSPORTER: inhibition of Digoxin transepithelial transport (basal to apical)(Digoxin: 0.1 uM, Delapril: 50 uM) in MDR1-expressing LLC-PK1 cells
[9] = target: T1, ATP-dependent translocase ABCB1; assay: TP_TRANSPORTER: inhibition of Digoxin transepithelial transport (basal to apical)(Digoxin: 0.1 uM, Doxazosin: 50 uM) in MDR1-expressing LLC-PK1 cells
[10] = target: T1, ATP-dependent translocase ABCB1; assay: TP_TRANSPORTER: inhibition of Digoxin transepithelial transport (basal to apical)(Digoxin: 0.1 uM, Enalapril: 50 uM) in MDR1-expressing LLC-PK1 cells
[11] = target: T1, ATP-dependent translocase ABCB1; assay: TP_TRANSPORTER: inhibition of Digoxin transepithelial transport (basal to apical) (Digoxin: 0.1 uM, Lisinopril: 50 uM) in MDR1-expressing LLC-PK1 cells
[12] = target: T1, ATP-dependent translocase ABCB1; assay: TP_TRANSPORTER: inhibition of Digoxin transepithelial transport (basal to apical) (Digoxin: 0.1 uM, Losartan: 50 uM) in MDR1-expressing LLC-PK1 cells
[13] = target: T1, ATP-dependent translocase ABCB1; assay: TP_TRANSPORTER: inhibition of Digoxin transepithelial transport (basal to apical)(Digoxin: 0.1 uM, Metprolol: 50 uM) in MDR1-expressing LLC-PK1 cells
[14] = target: T1, ATP-dependent translocase ABCB1; assay: TP_TRANSPORTER: inhibition of Digoxin transepithelial transport (basal to apical) (Digoxin: 0.1 uM, Perindoprilat: 50 uM) in MDR1-expressing LLC-PK1 cells
[15] = target: T1, ATP-dependent translocase ABCB1; assay: TP_TRANSPORTER: inhibition of Digoxin transepithelial transport (basal to apical) (Digoxin: 0.1 uM, Perindopril: 50 uM) in MDR1-expressing LLC-PK1 cells
[16] = target: T1, ATP-dependent translocase ABCB1; assay: TP_TRANSPORTER: inhibition of Digoxin transepithelial transport (basal to apical)(Digoxin: 0.1 uM, Temocaprilat: 50 uM) in MDR1-expressing LLC-PK1 cells
[17] = target: T1, ATP-dependent translocase ABCB1; assay: TP_TRANSPORTER: inhibition of Digoxin transepithelial transport (basal to apical)(Digoxin: 0.1 uM, Temocapril: 50 uM) in MDR1-expressing LLC-PK1 cells

T1 sequence (P08183 whole entry): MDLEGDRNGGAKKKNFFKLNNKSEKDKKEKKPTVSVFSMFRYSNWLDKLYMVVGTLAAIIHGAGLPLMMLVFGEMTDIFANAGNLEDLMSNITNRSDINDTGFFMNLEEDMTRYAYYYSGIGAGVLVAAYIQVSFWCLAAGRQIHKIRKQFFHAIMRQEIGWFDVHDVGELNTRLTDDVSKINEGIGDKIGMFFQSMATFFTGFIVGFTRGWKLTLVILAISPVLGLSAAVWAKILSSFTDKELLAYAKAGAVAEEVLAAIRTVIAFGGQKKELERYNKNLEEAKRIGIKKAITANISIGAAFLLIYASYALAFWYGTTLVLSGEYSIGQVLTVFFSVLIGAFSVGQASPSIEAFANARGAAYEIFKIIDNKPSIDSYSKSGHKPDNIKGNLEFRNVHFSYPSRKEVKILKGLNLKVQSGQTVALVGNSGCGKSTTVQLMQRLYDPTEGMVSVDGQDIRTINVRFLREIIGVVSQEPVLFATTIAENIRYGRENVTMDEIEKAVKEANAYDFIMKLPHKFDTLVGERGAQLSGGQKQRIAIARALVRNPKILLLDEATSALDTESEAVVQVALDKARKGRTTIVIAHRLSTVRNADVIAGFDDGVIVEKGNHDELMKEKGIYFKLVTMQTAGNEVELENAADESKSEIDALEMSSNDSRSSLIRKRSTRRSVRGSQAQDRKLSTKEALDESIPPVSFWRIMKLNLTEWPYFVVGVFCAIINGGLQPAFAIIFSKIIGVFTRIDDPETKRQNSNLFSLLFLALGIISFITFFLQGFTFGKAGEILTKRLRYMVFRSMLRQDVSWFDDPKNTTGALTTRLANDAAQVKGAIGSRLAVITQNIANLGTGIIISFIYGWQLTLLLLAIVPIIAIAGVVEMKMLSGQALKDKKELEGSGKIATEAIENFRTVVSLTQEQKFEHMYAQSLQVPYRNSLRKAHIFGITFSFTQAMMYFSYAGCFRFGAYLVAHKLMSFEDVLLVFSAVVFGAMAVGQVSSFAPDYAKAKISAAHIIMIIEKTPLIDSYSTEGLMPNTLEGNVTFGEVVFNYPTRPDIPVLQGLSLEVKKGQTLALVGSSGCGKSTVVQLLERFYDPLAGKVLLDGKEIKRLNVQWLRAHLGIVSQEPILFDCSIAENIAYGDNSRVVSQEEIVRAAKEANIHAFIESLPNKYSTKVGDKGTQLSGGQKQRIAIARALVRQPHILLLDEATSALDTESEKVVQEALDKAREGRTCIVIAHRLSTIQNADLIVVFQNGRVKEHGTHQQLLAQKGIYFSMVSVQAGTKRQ

Activity [5]: inhibitor [+]
SMILES: COc1ccccc1OCCNCC(O)COc1cccc2[nH]c3ccccc3c12 (configuration not stated) [CARVEDILOL]

Activity [9]: inhibitor [+]
SMILES: COc1cc2nc(N3CCN(C(=O)C4COc5ccccc5O4)CC3)nc(N)c2cc1OC (configuration not stated) [DOXAZOSIN]

Activity [14]: is not an inhibitor [-]
SMILES: CCC[C@H](N[C@@H](C)C(=O)N1[C@H](C(=O)O)C[C@@H]2CCCC[C@@H]21)C(=O)O [PERINDOPRILAT]

Activity [15]: is not an inhibitor [-]
SMILES: CCC[C@H](N[C@@H](C)C(=O)N1[C@H](C(=O)O)C[C@@H]2CCCC[C@@H]21)C(=O)OCC [PERINDOPRIL]

Activity [17]: is not an inhibitor [-]
SMILES: CCOC(=O)[C@H](CCc1ccccc1)N[C@H]1CS[C@H](c2cccs2)CN(CC(=O)O)C1=O [TEMOCAPRIL]

Further lines, the molecule ahead of its results:

SMILES: CC(C)NCC(O)COc1ccc(CC(N)=O)cc1 (configuration not stated) [ATENOLOL]
Activity [1]: is not an inhibitor [-]

SMILES: CCOc1nc2cccc(C(=O)OC(C)OC(=O)OC3CCCCC3)c2n1Cc1ccc(-c2ccccc2-c2nnn[nH]2)cc1 (configuration not stated) [CANDESARTAN CILEXETIL]
Activity [2]: is not an inhibitor [-]

SMILES: CCOc1nc2cccc(C(=O)O)c2n1Cc1ccc(-c2ccccc2-c2nnn[nH]2)cc1 [CANDESARTAN]
Activity [3]: is not an inhibitor [-]

SMILES: C[C@H](CS)C(=O)N1CCC[C@H]1C(=O)O [CAPTOPRIL]
Activity [4]: is not an inhibitor [-]

SMILES: O=C(O)[C@H](CCc1ccccc1)N[C@H]1CCCN2CCC[C@@H](C(=O)O)N2C1=O [CILAZAPRILAT]
Activity [6]: is not an inhibitor [-]

SMILES: CCOC(=O)[C@H](CCc1ccccc1)N[C@H]1CCCN2CCC[C@@H](C(=O)O)N2C1=O [CILAZAPRIL]
Activity [7]: is not an inhibitor [-]

SMILES: CCOC(=O)[C@H](CCc1ccccc1)N[C@@H](C)C(=O)N(CC(=O)O)C1Cc2ccccc2C1 [DELAPRIL]
Activity [8]: is not an inhibitor [-]

SMILES: CCOC(=O)[C@H](CCc1ccccc1)N[C@@H](C)C(=O)N1CCC[C@H]1C(=O)O [ENALAPRIL]
Activity [10]: is not an inhibitor [-]

SMILES: NCCCC[C@H](N[C@@H](CCc1ccccc1)C(=O)O)C(=O)N1CCC[C@H]1C(=O)O [LISINOPRIL ANHYDROUS]
Activity [11]: is not an inhibitor [-]

SMILES: CCCCc1nc(Cl)c(CO)n1Cc1ccc(-c2ccccc2-c2nn[nH]n2)cc1 [LOSARTAN]
Activity [12]: is not an inhibitor [-]

SMILES: COCCc1ccc(OCC(O)CNC(C)C)cc1 (configuration not stated) [METOPROLOL]
Activity [13]: is not an inhibitor [-]

SMILES: O=C(O)CN1C[C@@H](c2cccs2)SC[C@H](N[C@@H](CCc2ccccc2)C(=O)O)C1=O [TEMOCAPRILAT]
Activity [16]: is not an inhibitor [-]

— ChEMBL document CHEMBL2073891, “Interaction of digoxin with antihypertensive drugs via MDR1” (Life Sci, 2002)
